± gives the standard deviation of the averaged measurements.
Columns and labels:
Conditions in all cases: 72 h
Caco-2 [1] = test: cell viability relative to DMSO; higher = less toxic
Calu-3 [2] = test: as above
HepG2 [3] = test: as above
U2OS [4] = test: as above
Vero E6 [5] = test: as above
Caco-2 [6] = test: relative viability EC50 (midpoint between 100% and the lowest measured viability); higher = less toxic
Calu-3 [7] = test: as above
HepG2 [8] = test: as above
U2OS [9] = test: as above
Vero E6 [10] = test: as above
Caco-2 [11] = test: drug sensitivity score (DSS) for viability; higher = more toxic; extreme values may be limits of the assay
Calu-3 [12] = test: as above
HepG2 [13] = test: as above
U2OS [14] = test: as above
Vero E6 [15] = test: as above

| Structure (SMILES) | cell viability (Caco-2 [1]; 1 nM) | cell viability (Caco-2 [1]; 10 nM) | cell viability (Caco-2 [1]; 100 nM) | cell viability (Caco-2 [1]; 1000 nM) | cell viability (Caco-2 [1]; 10000 nM) | cell viability (Calu-3 [2]; 1 nM) | cell viability (Calu-3 [2]; 10 nM) | cell viability (Calu-3 [2]; 100 nM) | cell viability (Calu-3 [2]; 1000 nM) | cell viability (Calu-3 [2]; 10000 nM) | cell viability (HepG2 [3]; 1 nM) | cell viability (HepG2 [3]; 10 nM) | cell viability (HepG2 [3]; 100 nM) | cell viability (HepG2 [3]; 1000 nM) | cell viability (HepG2 [3]; 10000 nM) | cell viability (U2OS [4]; 1 nM) | cell viability (U2OS [4]; 10 nM) | cell viability (U2OS [4]; 100 nM) | cell viability (U2OS [4]; 1000 nM) | cell viability (U2OS [4]; 10000 nM) | cell viability (Vero E6 [5]; 1 nM) | cell viability (Vero E6 [5]; 10 nM) | cell viability (Vero E6 [5]; 100 nM) | cell viability (Vero E6 [5]; 1000 nM) | cell viability (Vero E6 [5]; 10000 nM) | relative viability EC50 (Caco-2 [6]) | relative viability EC50 (Calu-3 [7]) | relative viability EC50 (HepG2 [8]) | relative viability EC50 (U2OS [9]) | relative viability EC50 (Vero E6 [10]) | drug sensitivity score (Caco-2 [11]) | drug sensitivity score (Calu-3 [12]) | drug sensitivity score (HepG2 [13]) | drug sensitivity score (U2OS [14]) | drug sensitivity score (Vero E6 [15]) |
| --- | --- | --- | --- | --- | --- | --- | --- | --- | --- | --- | --- | --- | --- | --- | --- | --- | --- | --- | --- | --- | --- | --- | --- | --- | --- | --- | --- | --- | --- | --- | --- | --- | --- | --- | --- |
| CCCCNc1cc(C(=O)O)cc(S(N)(=O)=O)c1Oc1ccccc1 [bumetanide] | 90.2% | 103% | 103% | 94.1% | 96.7% | 95% | 93.1% | 104% | 95.4% | 95.1% | 103% | 98.5% | 104% | 107% | 94.6% | 97.9% | 101% | 98.9% | 99.1% | 102% | 117% | 108% | 107% | 95.6% | 99% | > 10 µM | > 10 µM | > 10 µM | > 10 µM | > 10 µM | 0 | 0 | 0 | 0 | 0 |
| CC12CCC(CC1=O)C2(C)C (stereo not drawn) [camphor-(+)] | 95.2 ± 8.1% | 90.5 ± 0.99% | 99.2 ± 3.3% | 93.8 ± 7.3% | 99.3 ± 6.2% | 86% | 101% | 102% | 112% | 112% | 95.8 ± 3.6% | 104 ± 13% | 96.1 ± 0.42% | 98.2 ± 1.8% | 96.6 ± 14% | 101 ± 2.5% | 101 ± 6% | 99.8 ± 0.42% | 101 ± 5.5% | 99.8 ± 3.1% | 96.9 ± 3.2% | 98.5 ± 2.7% | 99.2 ± 4.2% | 96.7 ± 2% | 101 ± 9.5% | > 10 µM | > 10 µM | > 10 µM | > 10 µM | > 10 µM | 0 | 0 | 0.15 ± 0.21 | 0 | 0 |
| CCN(CC)CCN[C@@H](C(=O)OCCC(C)C)c1ccccc1 [camylofine-chlorhydrate] | 84.4% | 82% | 85.5% | 100% | 85.6% | 96.3% | 107% | 102% | 97.5% | 99% | 106% | 105% | 98.6% | 97.3% | 108% | 90.7% | 99.7% | 94.8% | 101% | 108% | 94.9% | 93% | 95.7% | 91.1% | 103% | > 10 µM | > 10 µM | > 10 µM | > 10 µM | > 10 µM | 1 | 0 | 0 | 0 | 0 |
| C[C@@H]1CC[C@H]2C(C)(C)[C@H]3C[C@@]12CC[C@@]3(C)O [cedrol] | 97.5% | 88.4% | 100% | 99.4% | 104% | 96.9% | 97.1% | 103% | 87.7% | 102% | 97.7% | 102% | 98% | 104% | 118% | 99.9% | 94.5% | 101% | 97.1% | 101% | 94.5% | 96.5% | 91.2% | 94.7% | 103% | > 10 µM | > 10 µM | > 10 µM | > 10 µM | > 10 µM | 0 | 0 | 0 | 0 | 0 |
| CCCCCCCCCCCCCCCCNc1ccc(C(=O)O)cc1 [cetaben] | 99.2% | 97.4% | 109% | 93.7% | 103% | 99.5% | 101% | 98.5% | 90.8% | 95.4% | 101% | 111% | 97.3% | 105% | 99.5% | 99.5% | 97.8% | 102% | 99.2% | 98.5% | 99.8% | 99.2% | 94.4% | 98.8% | 101% | > 10 µM | > 10 µM | > 10 µM | > 10 µM | > 10 µM | 0 | 0 | 0 | 0 | 0 |
| CC1OC2(CS1)CN1CCC2CC1 (stereo not given) [cevimeline] | 98.3% | 88.1% | 91.3% | 91% | 96.3% | 106% | 92.9% | 102% | 97.1% | 103% | 107% | 97% | 94.9% | 89.2% | 111% | 99.1% | 98.9% | 99.7% | 106% | 106% | 96.7% | 91.5% | 92.7% | 89.7% | 102% | > 10 µM | > 10 µM | > 10 µM | > 10 µM | > 10 µM | 0 | 0 | 0 | 0 | 0 |
| CC1(C)[C@H]2CC[C@]1(C)[C@@H](O)[C@H]2O [cis-exo-camphanediol-2,3] | 99.8 ± 5.1% | 104 ± 12% | 100 ± 9.5% | 102 ± 15% | 95.5 ± 5.4% | 104 ± 7.5% | 100 ± 1.9% | 106.2 ± 0.64% | 102 ± 5.9% | 97.85 ± 0.21% | 92% | 88.7% | 98.7% | 98.1% | 102% | 99.55 ± 0.071% | 106 ± 1.4% | 99 ± 1.6% | 99.5 ± 3.2% | 99 ± 5.7% | 97.8 ± 2.5% | 96.5 ± 10% | 96.8 ± 1.5% | 94.8 ± 6.7% | 95.6 ± 3.2% | > 10 µM | > 10 µM | > 10 µM | > 10 µM | > 10 µM | 0 | 0 | 0 | 0 | 0 |
| COc1cc(N)c(Cl)cc1C(=O)NC1CCN(Cc2ccccc2)CC1 [clebopride] | 107% | 99.9% | 108% | 102% | 85.6% | 94.3% | 101% | 107% | 96.6% | 94.2% | 97.1% | 97.5% | 95.1% | 104% | 94.7% | 93.7% | 97.2% | 96.8% | 97.3% | 94% | 93.6% | 104% | 102% | 97.6% | 98.1% | > 10 µM | > 10 µM | > 10 µM | > 10 µM | > 10 µM | 0.1 | 0 | 0 | 0 | 0 |
| Oc1c(I)cc(Cl)c2cccnc12 [clioquinol] | 93.5% | 92.2% | 108% | 99.7% | 85.8% | 95% | 93.2% | 104% | 87.8% | 97.1% | 101% | 98.7% | 92.8% | 104% | 75.6% | 97.1% | 93.6% | 100% | 96.4% | 99.5% | 106% | 99.3% | 108% | 111% | 87.2% | > 10 µM | > 10 µM | > 10 µM | > 10 µM | > 10 µM | 0.2 | 0 | 0.7 | 0 | 0 |
| Nc1ncnc2c1ncn2[C@@H]1O[C@@H]2COP(=O)(O)O[C@H]2[C@H]1O [cyclic-AMP] | 89.8% | 93% | 94.5% | 93.5% | 95.9% | 100% | 107% | 103% | 111% | 95.5% | 97.7% | 100% | 89.5% | 102% | 92.2% | 103% | 103% | 96.1% | 102% | 99.6% | 102% | 98.6% | 93.9% | 102% | 98.9% | > 10 µM | > 10 µM | > 10 µM | > 10 µM | > 10 µM | 0 | 0 | 0 | 0 | 0 |
| O=c1cccc2n1C[C@@H]1CNC[C@H]2C1 [cytisine] | 93.3% | 92.2% | 92.4% | 91.3% | 96.5% | 101% | 95.6% | 99% | 95.4% | 104% | 102% | 101% | 96.4% | 97% | 114% | 102% | 96.2% | 101% | 100% | 102% | 88.2% | 98.6% | 92.5% | 97.3% | 108% | > 10 µM | > 10 µM | > 10 µM | > 10 µM | > 10 µM | 0 | 0 | 0 | 0 | 0 |
| O=C1c2c(O)cc(O)cc2O[C@H](c2cc(O)c(O)c(O)c2)[C@H]1O [dihydromyricetin] | 102% | 92.3% | 95.6% | 100% | 97.4% | 105% | 98.2% | 93.7% | 111% | 90.3% | 95.8% | 94.5% | 98.5% | 94.7% | 103% | 102% | 95.8% | 103% | 106% | 104% | 96.1% | 96% | 96.4% | 98.4% | 103% | > 10 µM | > 10 µM | > 10 µM | > 10 µM | > 10 µM | 0 | 0 | 0 | 0 | 0 |
| O=S(=O)(O)CCSSCCS(=O)(=O)O [dimesna] | 95.7% | 99.5% | 101% | 98.5% | 92.5% | 96.8% | 96.3% | 85.7% | 90.7% | 86.2% | 94.6% | 98.8% | 102% | 98.7% | 97.7% | 104% | 98.7% | 103% | 104% | 101% | 101% | 108% | 104% | 98.5% | 100% | > 10 µM | > 10 µM | > 10 µM | > 10 µM | > 10 µM | 0 | 1.4 | 0 | 0 | 0 |
| CCCCc1cc2ccccc2c(OCCN(C)C)n1 [dimethisoquin] | 107% | 102% | 91.5% | 105% | 97.6% | 104% | 97.7% | 92.3% | 95.6% | 98.3% | 103% | 104% | 109% | 91.2% | 102% | 98.9% | 106% | 102% | 105% | 91.3% | 106% | 97.5% | 97.3% | 96.1% | 94.3% | > 10 µM | > 10 µM | > 10 µM | > 10 µM | > 10 µM | 0 | 0 | 0 | 0 | 0 |

Reference: the supplement of paper PMC13380429
